*1 amine or outer side, *2 acyl side, *3 side chain or, on linkers, in order; H or OH if unused. Where a SMILES comes first, the peptide text is derived from it. Bridges are numbered along the chain shown (N, C = ends). [ ]: non-standard residue; d: D form. The star is where a group is joined. ξ: configuration not given here. X2 = O=C(C(N[*:1])c1ccc(OC2OC(CO)C(O)C(O)C2OC2OC(CO)C(O)C(O)C2O)cc1)[*:2]; Octa(2Z,4E)dienoyl(7-Me) = CC(C)C/C=C/C=C\C(=O)*; ξPhg(3-Cl-4-OH) = NC(C(=O)O)c1ccc(O)c(Cl)c1; X1 = NC(=O)C(O[*:3])C(N[*:1])C(=O)[*:2]; Hpg = N[CH](C(=O)O)c1ccc(O)cc1; Orn = NCCC[CH](N)C(=O)O
Tested on: PS19 mouse model of tauopathy (human MAPT P301S)
Assay: Behavior, neuropathology and survival of PS19 mice
Assay type: in vivo
Settings: 50, 100, and 150 mg/kg in feed, approximately 8 months

For `CC(C)C/C=C/C=C\C(=O)NC(CC(N)=O)C(=O)NC1C(=O)NC(c2ccc(O)cc2)C(=O)NC(CCCN)C(=O)NC(C(C)O)C(=O)NC(c2ccc(O)cc2)C(=O)NC(c2ccc(O)cc2)C(=O)NC(C(C)O)C(=O)NC(Cc2ccccc2)C(=O)NC(CCCN)C(=O)NC(c2ccc(OC3OC(CO)C(O)C(O)C3OC3OC(CO)C(O)C(O)C3O)cc2)C(=O)NC(C(C)O)C(=O)NC(c2ccc(O)cc2)C(=O)NCC(=O)NC(CC(C)C)C(=O)NC(C)C(=O)NC(c2ccc(O)c(Cl)c2)C(=O)OC1C(N)=O` (centres unmarked) [Ramoplanin A2] ({Octa(2Z,4E)dienoyl(7-Me)}-N[X1][Hpg][Orn]T[Hpg][Hpg]TF[Orn][X2]T[Hpg]GLA[ξPhg(3-Cl-4-OH)]; ester 2-C; configuration not given here), which “cognition, neuropathology, and survival of PS19 mice” value is on record?
The value was “positive effect”.

And the “tau aggregation in PS19 mice” value?
The value was “inhibits tau aggregation”.

Reference: patent US20260199426A1, “CYCLIC LIPOPEPTIDE ANTIBIOTIC COMPOUNDS FOR USE IN THE TREATMENT OF PROTEIN AGGREGATION DISEASE” (DEUTSCHES ZENTRUM FÜR NEURODEGENERATIVE ERKRANKUNGEN E. V., priority 2022, published 2026)
